Earlier results in patent US20100291629A1, “USE OF DELEUCOCYTATION FILTERS FOR DEFENSIN PURIFICATION” (ETABLISSEMENT FRANCAIS DU SANG, priority 2006, published 2010).

Key:
neutrophils [1] = conditions: PMA 1 μg/ml
neutrophils [2] = test system: neutrophils
isolated neutrophils = conditions: Ionomycin 1 μM; 30.10^6 isolated neutrophils

CCCCCCCCCCCCCC(=O)O[C@@H]1[C@@H](C)[C@@]2(O)[C@@H](C=C(CO)C[C@]3(O)C(=O)C(C)=C[C@@H]23)[C@@H]2C(C)(C)[C@]12OC(C)=O [PMA, phorbol myristate acetate]
defensins released (neutrophils [1]): 8%

CSCC[C@H](NC=O)C(=O)N[C@@H](CC(C)C)C(=O)N[C@@H](Cc1ccccc1)C(=O)O [fMLP, N-formylmethionyl-leucyl-phenylalanine]
defensin release, % of the content (neutrophils [2]; fMLP 10^−7 M): 17%

C[C@H](CCC(=O)O)C[C@H](C)C[C@H](C)C(=O)/C=C(\O)[C@H](C)C[C@H](C)C/C=C/[C@@H](C)[C@@H](O)[C@@H](C)[C@@H](O)C[C@@H]1CC[C@@](C)([C@H]2CC[C@@](C)([C@@H](C)O)O2)O1 [ionomycin, Ionomycin]
α-defensin exocytosis rate (isolated neutrophils): approximately 20%

IL8: Interleukine 8, used to treat neutrophils in vitro
defensin release, % of the defensin content in neutrophil granules (neutrophils [2]; IL8 50 ng/ml, 2.10^6 neutrophils): 10%
